The text below walks through data of ChEMBL document CHEMBL1129336, “Ryanodine action at calcium release channels. 2. relation to substituents of the cyclohexane ring” (J Med Chem, 1996).

Ryanodine receptor 2 (Mus musculus), sequence (E9Q401 whole entry, looked up): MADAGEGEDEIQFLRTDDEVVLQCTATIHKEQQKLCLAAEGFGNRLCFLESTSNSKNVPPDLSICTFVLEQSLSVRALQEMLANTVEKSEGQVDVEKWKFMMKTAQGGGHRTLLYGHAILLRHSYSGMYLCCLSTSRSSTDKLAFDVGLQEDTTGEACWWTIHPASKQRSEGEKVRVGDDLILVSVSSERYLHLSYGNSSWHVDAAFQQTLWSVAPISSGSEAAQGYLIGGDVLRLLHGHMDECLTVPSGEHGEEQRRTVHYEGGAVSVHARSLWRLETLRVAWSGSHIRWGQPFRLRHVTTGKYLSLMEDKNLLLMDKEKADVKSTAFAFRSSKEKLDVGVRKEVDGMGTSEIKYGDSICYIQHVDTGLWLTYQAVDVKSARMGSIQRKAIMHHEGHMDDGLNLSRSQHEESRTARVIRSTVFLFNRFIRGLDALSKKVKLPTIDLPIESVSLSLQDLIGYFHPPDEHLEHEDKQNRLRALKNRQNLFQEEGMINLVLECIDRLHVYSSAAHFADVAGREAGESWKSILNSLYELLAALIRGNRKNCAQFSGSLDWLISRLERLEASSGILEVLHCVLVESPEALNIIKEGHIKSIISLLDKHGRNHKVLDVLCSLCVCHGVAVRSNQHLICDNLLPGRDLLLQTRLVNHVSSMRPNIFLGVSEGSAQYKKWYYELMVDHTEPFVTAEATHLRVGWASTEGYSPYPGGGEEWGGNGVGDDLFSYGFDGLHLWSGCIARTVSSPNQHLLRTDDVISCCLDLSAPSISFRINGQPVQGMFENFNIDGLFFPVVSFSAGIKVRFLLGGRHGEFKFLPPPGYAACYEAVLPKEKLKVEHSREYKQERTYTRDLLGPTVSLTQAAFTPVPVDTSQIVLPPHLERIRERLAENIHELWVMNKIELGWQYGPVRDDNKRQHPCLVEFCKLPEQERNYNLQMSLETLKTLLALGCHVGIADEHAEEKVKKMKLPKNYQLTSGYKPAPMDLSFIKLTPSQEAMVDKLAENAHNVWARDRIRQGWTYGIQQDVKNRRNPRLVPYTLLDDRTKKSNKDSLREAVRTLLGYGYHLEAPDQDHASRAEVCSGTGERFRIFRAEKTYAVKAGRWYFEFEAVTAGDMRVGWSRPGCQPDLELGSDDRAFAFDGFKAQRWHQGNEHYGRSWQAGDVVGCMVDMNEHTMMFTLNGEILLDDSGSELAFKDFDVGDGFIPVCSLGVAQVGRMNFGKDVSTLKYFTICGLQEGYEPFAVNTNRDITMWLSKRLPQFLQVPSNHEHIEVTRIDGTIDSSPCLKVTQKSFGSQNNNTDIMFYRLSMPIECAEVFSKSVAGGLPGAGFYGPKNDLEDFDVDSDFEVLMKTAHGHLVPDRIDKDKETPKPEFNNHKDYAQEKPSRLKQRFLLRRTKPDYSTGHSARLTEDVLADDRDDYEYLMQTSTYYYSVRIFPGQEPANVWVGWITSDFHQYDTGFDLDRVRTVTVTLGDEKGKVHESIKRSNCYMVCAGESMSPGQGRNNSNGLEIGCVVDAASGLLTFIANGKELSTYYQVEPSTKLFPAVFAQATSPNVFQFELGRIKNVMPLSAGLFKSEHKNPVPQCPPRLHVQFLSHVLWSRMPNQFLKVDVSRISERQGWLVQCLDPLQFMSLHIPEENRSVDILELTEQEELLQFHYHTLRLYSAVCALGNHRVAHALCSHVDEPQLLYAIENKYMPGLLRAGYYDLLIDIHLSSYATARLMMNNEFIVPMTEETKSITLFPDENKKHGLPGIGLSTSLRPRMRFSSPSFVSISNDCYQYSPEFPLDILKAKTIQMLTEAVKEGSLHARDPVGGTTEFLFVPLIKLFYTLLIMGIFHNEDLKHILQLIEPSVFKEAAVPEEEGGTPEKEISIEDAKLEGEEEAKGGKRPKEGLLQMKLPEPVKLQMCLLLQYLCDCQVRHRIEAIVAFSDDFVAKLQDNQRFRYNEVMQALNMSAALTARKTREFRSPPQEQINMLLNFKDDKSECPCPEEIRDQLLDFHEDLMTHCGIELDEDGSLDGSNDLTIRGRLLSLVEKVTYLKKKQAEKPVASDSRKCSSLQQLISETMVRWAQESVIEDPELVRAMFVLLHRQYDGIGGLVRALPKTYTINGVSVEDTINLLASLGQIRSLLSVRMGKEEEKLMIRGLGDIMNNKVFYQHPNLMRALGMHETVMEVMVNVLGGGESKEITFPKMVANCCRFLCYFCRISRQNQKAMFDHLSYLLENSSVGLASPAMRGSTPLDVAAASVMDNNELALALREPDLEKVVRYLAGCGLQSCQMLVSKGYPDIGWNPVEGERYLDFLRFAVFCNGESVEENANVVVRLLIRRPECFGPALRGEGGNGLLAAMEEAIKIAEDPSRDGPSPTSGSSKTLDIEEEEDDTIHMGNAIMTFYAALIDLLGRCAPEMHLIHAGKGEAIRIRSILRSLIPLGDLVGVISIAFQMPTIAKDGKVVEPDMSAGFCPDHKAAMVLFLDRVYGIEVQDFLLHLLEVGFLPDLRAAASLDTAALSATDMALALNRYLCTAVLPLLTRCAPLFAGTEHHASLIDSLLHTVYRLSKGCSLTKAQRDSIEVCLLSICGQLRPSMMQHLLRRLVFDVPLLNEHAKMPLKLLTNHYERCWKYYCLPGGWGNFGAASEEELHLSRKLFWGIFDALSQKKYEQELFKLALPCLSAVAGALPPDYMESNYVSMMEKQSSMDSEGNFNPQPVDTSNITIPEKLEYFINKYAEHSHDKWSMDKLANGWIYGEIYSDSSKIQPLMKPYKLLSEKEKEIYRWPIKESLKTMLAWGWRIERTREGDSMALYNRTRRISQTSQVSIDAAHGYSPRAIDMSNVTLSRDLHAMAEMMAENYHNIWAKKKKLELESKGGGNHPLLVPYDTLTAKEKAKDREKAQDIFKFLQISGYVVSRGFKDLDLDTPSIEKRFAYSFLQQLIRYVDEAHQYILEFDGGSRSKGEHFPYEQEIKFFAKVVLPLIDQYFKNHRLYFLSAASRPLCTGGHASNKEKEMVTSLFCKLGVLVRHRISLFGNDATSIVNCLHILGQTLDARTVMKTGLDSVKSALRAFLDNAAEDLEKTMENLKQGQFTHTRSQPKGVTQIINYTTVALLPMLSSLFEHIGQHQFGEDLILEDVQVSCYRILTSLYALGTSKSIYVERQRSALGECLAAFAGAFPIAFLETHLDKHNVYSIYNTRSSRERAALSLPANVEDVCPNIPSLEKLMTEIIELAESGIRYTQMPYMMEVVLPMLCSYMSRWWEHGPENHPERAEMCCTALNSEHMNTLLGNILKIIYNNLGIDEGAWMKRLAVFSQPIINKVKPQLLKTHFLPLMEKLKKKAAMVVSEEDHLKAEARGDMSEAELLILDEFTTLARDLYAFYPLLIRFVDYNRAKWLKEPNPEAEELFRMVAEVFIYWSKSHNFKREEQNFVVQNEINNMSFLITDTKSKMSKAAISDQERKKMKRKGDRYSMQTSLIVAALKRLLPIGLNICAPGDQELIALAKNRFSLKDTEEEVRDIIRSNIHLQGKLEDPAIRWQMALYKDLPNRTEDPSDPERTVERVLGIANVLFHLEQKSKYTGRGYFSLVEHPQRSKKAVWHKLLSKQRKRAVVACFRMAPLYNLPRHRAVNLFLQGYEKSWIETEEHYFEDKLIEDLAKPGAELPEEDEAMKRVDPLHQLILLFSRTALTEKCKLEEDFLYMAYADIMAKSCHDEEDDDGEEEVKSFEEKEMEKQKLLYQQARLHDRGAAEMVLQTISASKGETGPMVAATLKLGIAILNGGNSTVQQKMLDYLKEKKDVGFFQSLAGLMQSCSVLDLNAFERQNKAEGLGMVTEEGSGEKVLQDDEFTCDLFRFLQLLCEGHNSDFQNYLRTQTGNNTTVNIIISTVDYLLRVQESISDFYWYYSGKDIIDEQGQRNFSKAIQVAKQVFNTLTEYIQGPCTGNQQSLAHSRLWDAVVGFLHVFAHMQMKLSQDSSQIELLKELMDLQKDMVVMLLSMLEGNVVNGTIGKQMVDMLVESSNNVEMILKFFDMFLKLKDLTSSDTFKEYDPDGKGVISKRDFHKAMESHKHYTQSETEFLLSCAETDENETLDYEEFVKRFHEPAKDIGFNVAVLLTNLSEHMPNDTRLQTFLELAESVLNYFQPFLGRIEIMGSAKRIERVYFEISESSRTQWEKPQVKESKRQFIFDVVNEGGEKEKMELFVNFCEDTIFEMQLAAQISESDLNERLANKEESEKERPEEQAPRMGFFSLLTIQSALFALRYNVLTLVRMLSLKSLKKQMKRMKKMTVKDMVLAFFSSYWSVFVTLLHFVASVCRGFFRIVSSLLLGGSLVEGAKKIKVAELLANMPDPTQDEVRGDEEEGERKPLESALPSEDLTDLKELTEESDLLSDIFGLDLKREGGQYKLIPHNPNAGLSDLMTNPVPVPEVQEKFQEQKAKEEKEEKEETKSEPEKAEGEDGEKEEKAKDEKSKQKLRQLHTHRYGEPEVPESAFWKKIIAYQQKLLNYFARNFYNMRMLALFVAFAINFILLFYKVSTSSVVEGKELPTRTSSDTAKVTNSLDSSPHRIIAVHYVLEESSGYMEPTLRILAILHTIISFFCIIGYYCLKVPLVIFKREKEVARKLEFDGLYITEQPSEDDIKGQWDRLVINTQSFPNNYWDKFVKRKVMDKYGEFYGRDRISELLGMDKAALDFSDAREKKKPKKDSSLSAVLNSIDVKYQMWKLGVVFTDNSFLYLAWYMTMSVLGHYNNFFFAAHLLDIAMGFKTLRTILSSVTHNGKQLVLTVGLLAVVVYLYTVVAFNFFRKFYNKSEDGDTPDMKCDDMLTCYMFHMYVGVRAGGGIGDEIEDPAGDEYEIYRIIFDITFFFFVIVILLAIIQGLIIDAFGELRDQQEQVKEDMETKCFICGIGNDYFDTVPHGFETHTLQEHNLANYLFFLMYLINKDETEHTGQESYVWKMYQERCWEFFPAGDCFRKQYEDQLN

This assay has as its target Ryanodine receptor 2 (Mus musculus) (UniProt E9Q401). As to the kind of experiment: Displacement of [3H]ryanodine from ryanodine receptor(ryr) of Mouse brain. (In general: In a radioligand displacement assay an active substance lowers the binding of a labelled ligand.)
Compound `CC1CCC2(O)C3(C)CC4(O)OC2(C1N)C1(O)C3(O)C(OC(=O)c2ccc[nH]2)C(O)(C(C)C)C41C` (stereo not given) registered a Relative activity of 65.

Compound `CC(C)C1(O)C(OC(=O)c2ccc[nH]2)C2(O)C3(C)CC4(O)OC5(CCCCC35O)C2(O)C41C` (stereo not given) had a Relative activity of 18.

Take `CO/N=C1\C(C)CCC2(O)C3(C)CC4(O)OC12C1(O)C3(O)C(OC(=O)c2ccc[nH]2)C(O)(C(C)C)C41C` (stereo not given): the Relative activity was determined as 13.

`C=C1CCC2(O)C3(C)CC4(O)OC2(C1OC(=O)c1ccccc1)C1(O)C3(O)C(OC(=O)c2ccc[nH]2)C(O)(C(C)C)C41C` (stereo not given) came in with a Relative activity of 17.

In the case of `CC(C)C1(O)C(OC(=O)c2ccc[nH]2)C2(O)C3(C)CC4(O)OC5(CC(O)CCC35O)C2(O)C41C` (stereo not given), the Relative activity was found to be 0.4.
